# From US10428074B2, “Pyrrole heteroaryl ring derivative and method of use thereof” (Jiangsu Hengrui Medicine Co., Ltd., priority 2011, dated 2019)
# Test system: human erythroid leukemia cell line TF-1
# Experiment: Proliferation inhibition assay on TF-1 cells mediated by IL-4
# Type: cell-based
# Conditions: 10 ng/mL IL-4, 72 hours
# From the text: The following in vitro assay is to determine the activity of the compounds of the present invention for inhibiting the proliferation of human erythroid leukemia cell line TF-1.
# The activity is represented by the IC50 value, which can not only reflect the activity of a test compound for inhibiting JAK2 and JAK3 kinase, but can also reflect the selectivity of a test compound for JAK2 and JAK3 kinase.
# The general procedures of the assay are given as follows: first, the TF-1 cells (purchased from ATCC, Catalog number: CRL 2003) were seeded in a 96-well cell culture plate at a suitable cell concentration (8000 cells/mL medium), and 10 ng/mL IL-4 (Invitrogen, Catalog Number: PHC0044) were added to each well. Then 10× serial concentration gradient of test compounds solutions (10000, 1000, 100, 10, 1 and 0.1 nM) were prepared, and then the 10× compound solutions prepared above were added to the 96-well cell culture plate containing IL-4. After the cell plates were cultured continuously for 72 hours, the activity of the test compounds for inhibiting the cell proliferation was determined by using a Cell Counting Kit-8 (purchased from Dojindo, Catalog Number: CK04). IC50 values were calculated from the data of the inhibition rates at various concentrations of the test compounds.
row,IC50 [nM],Structure (SMILES)
1,196,"CN(c1ncnc2[nH]ccc12)[C@@H]1C[C@@H]2CN(C(=O)OC(C)(C)C)C[C@]2(C)C1 (racemic) [Example 1, (3aR,5R,6aS/3aS,5S,6aR)-tert-butyl-3a-methyl-5-(methyl(7H-pyrrolo[2,3-d]pyrimidin-4-yl)amino)hexahydro cyclopenta[c]pyrrole-2(1H)-carboxylate]"
2,14,"CN(c1ncnc2[nH]ccc12)[C@H]1C[C@@H]2CN(C(=O)Nc3nc(C4CC4)ns3)C[C@@H]2C1 [Example 125, (3aR,5S,6aS)-N-(3-cyclopropyl-1,2,4-thiadiazol-5-yl)-5-(methyl(7H-pyrrolo[2,3-d]pyrimidin-4-yl)amino) hexahydrocyclopenta [c]pyrrole-2(1H)-carboxamide]"
3,539,"CN(c1ncnc2[nH]c(F)cc12)[C@H]1C[C@@H]2CN(C(=O)CO)C[C@@H]2C1 [Example 129, 1-((3aR,5S,6aS)-5-((6-fluoro-7H-pyrrolo[2,3-d]pyrimidin-4-yl)(methyl)amino)hexahydrocyclopenta[c]pyrrol-2(1H)-yl)-2-hydroxyethanone]"
4,476,"CN(c1ncnc2[nH]ccc12)[C@@H]1C[C@@H]2CN(C(=O)Nc3nncs3)C[C@@H]2C1 [Example 73, (3aR,5R,6aS)-5-(methyl(7H-pyrrolo[2,3-d]pyrimidin-4-yl)amino)-N-(1,3,4-thiadiazol-2-yl)hexahydrocyclopenta[c] pyrrole-2(1H)-carboxamide]"
5,133,"CN(c1ncnc2[nH]ccc12)[C@H]1C[C@@H]2CN(C(=O)OC(C)(C)C)C[C@@H]2C1 [Example 5, (3aR,5S,6aS)-tert-Butyl 5-(methyl(7H-pyrrolo[2,3-d]pyrimidin-4-yl)amino)hexahydro cyclopenta[c]pyrrole-2(1H)-carboxylate]"
6,507,"Cc1noc(N2C[C@H]3C[C@H](N(C)c4ncnc5[nH]ccc45)C[C@H]3C2)n1 [Example 61, N-methyl-N-((3aR,5S,6aS)-2-(3-methyl-1,2,4-oxadiazol-5-yl)octahydrocyclopenta[c]pyrrol-5-yl)-7H-pyrrolo[2,3-d] pyrimidin-4-amine]"
7,419,"CN(c1ncnc2[nH]ccc12)C1C[C@@H]2CCN(C(=O)CC#N)C[C@@H]2C1 (stereo partly drawn) [Example 39, 3-((4aS,7aR)-6-(Methyl(7H-pyrrolo[2,3-d]pyrimidin-4-yl)amino)hexahydro-1H-cyclopenta[c]pyridin-2(3H,4H,4aH,5H,6H,7H,7aH)-yl)-3-oxopropanenitrile]"

row,Structure (SMILES),IC50 [nM]
1,"COc1nsc(NC(=O)N2C[C@H]3C[C@@H](N(C)c4ncnc5[nH]ccc45)C[C@H]3C2)n1 [Example 74, (3aR,5R,6aS)-N-(3-methoxy-1,2,4-thiadiazol-5-yl)-5-(methyl(7H-pyrrolo[2,3-d]pyrimidin-4-yl)amino)hexahydrocyclopenta [c]pyrrole-2(1H)-carboxamide]",546
2,"C[C@@H](O)C(=O)N1C[C@H]2C[C@H](N(C)c3ncnc4[nH]ccc34)C[C@H]2C1 [Example 19, (R)-2-Hydroxy-1-((3aR,5S,6aS)-5-(methyl(7H-pyrrolo[2,3-d]pyrimidin-4-yl)amino)hexahydrocyclopenta[c]pyrrol-2(1H)-yl)propan-1-one]",711

# Test system: T cells
# Experiment: Proliferation inhibition assay on T cells (PBMC, anti-CD3, IL-2)
# Type: cell-based, human
# Conditions: Homo sapiens, T-cell, 72 h, IL-2 10 ng/mL
# From the text: The following in vitro assay is to determine the activity of the compounds of the present invention for inhibiting the proliferation of T cells.
# The activity is represented by the IC50 value.
# The general procedures of the assay are given as follows: first, the PBMC cell line (purchased from Shanghai Blood Center) was centrifuged, the supernatant was removed, and the cells counted. […] Then, the cells were washed 3 times, resuspended, diluted to 2×10^6/mL, and then mixed with recombinant human IL-2 (purchased from Peprotech, Catalog Number: 200-02) to a concentration of 10 ng/mL, and cultured for another 3 days. The cells were washed again 3 times, and diluted to 5×10^5/mL. 80 μL of the cells were seeded in each well of a 96-well cell culture plate. […] To he control wells, 10 μL culture medium were added. The plate was placed in an incubator. After incubating for 1 hr, negative control wells were mixed with 10 μL of culture medium, and the rest of the wells were mixed with IL-2 to a concentration of 10 ng/mL, and incubated continuously for 72 hours. […] IC50 values were calculated from the data of inhibition rates at various concentrations of the test compounds.
row,Structure (SMILES),IC50 [nM]
1,"CN(c1ncnc2[nH]ccc12)[C@@H]1CC2CNC(=O)CC2C1 (stereo partly drawn) [Example 148, (6S)-6-(methyl(7H-pyrrolo[2,3-d]pyrimidin-4-yl)amino) hexahydro-1H-cyclopenta[c] pyridin-3(2H)-one]",48
2,"CN(c1ncnc2[nH]ccc12)[C@@H]1C[C@@H]2CN(CCC#N)C[C@@H]2C1 [Example 68, 3-((3aR,5R,6aS)-5-(methyl(7H-pyrrolo[2,3-d]pyrimidin-4-yl)amino)hexahydrocyclopenta[c]pyrrol-2(1H)-yl)propanenitrile]",824
3,"COc1nsc(NC(=O)N2C[C@H]3C[C@@H](N(C)c4ncnc5[nH]ccc45)C[C@H]3C2)n1 [Example 74, (3aR,5R,6aS)-N-(3-methoxy-1,2,4-thiadiazol-5-yl)-5-(methyl(7H-pyrrolo[2,3-d]pyrimidin-4-yl)amino)hexahydrocyclopenta [c]pyrrole-2(1H)-carboxamide]",68
4,"C[C@@H](O)C(=O)N1C[C@H]2C[C@H](N(C)c3ncnc4[nH]ccc34)C[C@H]2C1 [Example 19, (R)-2-Hydroxy-1-((3aR,5S,6aS)-5-(methyl(7H-pyrrolo[2,3-d]pyrimidin-4-yl)amino)hexahydrocyclopenta[c]pyrrol-2(1H)-yl)propan-1-one]",724
5,"CN(c1ncnc2[nH]ccc12)[C@H]1C[C@@H]2CN(CCC#N)C[C@@H]2C1 [Example 27, 3-((3 aR,5S,6aS)-5-(Methyl(7H-pyrrolo[2,3-d]pyrimidin-4-yl)amino)hexahydrocyclopenta[c]pyrrol-2(1H)-yl)propanenitrile]",253
6,"CN(c1ncnc2[nH]ccc12)[C@H]1C[C@H]2CNC(=O)C[C@H]2C1 [Example 40, (4aR,6R,7aR)-6-(Methyl(7H-pyrrolo[2,3-d]pyrimidin-4-yl)amino) hexahydro-1H-cyclopenta[c]pyridin-3(2H)-one]",48
7,"COC(=O)CN1C[C@H]2C[C@H](N(C)c3ncnc4[nH]ccc34)C[C@H]2C1 [Example 24, Methyl 2-((3aR,5S,6aS)-5-(methyl(7H-pyrrolo[2,3-d]pyrimidin-4-yl)amino)hexahydrocyclopenta[c]pyrrol-2(1H)-yl)acetate]",851
8,"CN(c1ncnc2[nH]ccc12)[C@H]1C[C@@H]2CN(C(=O)CNS(C)(=O)=O)C[C@@H]2C1 [Example 21, N-(2-((3aR,5S,6aS)-5-(Methyl(7H-pyrrolo[2,3-d]pyrimidin-4-yl)amino)hexahydrocyclopenta[c]pyrrol-2(1H)-yl)-2-oxoethyl)methanesulfonamide]",892
9,"CN(c1ncnc2[nH]ccc12)[C@H]1C[C@@H]2CN(S(=O)(=O)C3CC3)C[C@@H]2C1 [Example 15, N-((3aR,5S,6aS)-2-(Cyclopropylsulfonyl)octahydrocyclopenta[c]pyrrol-5-yl)-N-methyl-7H-pyrrolo[2,3-d]pyrimidin-4-amine]",853
10,"CN(c1ncnc2[nH]ccc12)[C@H]1C[C@@H]2CN(CC(F)(F)F)C[C@@H]2C1 [Example 56, N-methyl-N-((3aR,5S,6aS)-2-(2,2,2-trifluoroethyl)octahydrocyclopenta [c]pyrrol-5-yl)-7H-pyrrolo[2,3-d]pyrimidin-4-amine]",119

# Same assay, conditions: Homo sapiens, T-cell; IL-2 10 ng/mL, 72 hours
row,Structure (SMILES),IC50 [nM]
1,"COc1cncc(NC(=O)N2C[C@H]3C[C@H](N(C)c4ncnc5[nH]ccc45)C[C@H]3C2)c1 [Example 109, (3aR,5S,6aS)-N-(5-methoxypyridin-3-yl)-5-(methyl(7H-pyrrolo[2,3-d]pyrimidin-4-yl)amino)hexahydrocyclopenta[c] pyrrole-2(1H)-carboxamide]",762
2,"CN(c1ncnc2[nH]ccc12)[C@@H]1C[C@@H]2CN(C(=O)CO)C[C@@H]2C1 [Example 23, 2-Hydroxy-1-((3aR,5R,6aS)-5-(methyl(7H-pyrrolo[2,3-d]pyrimidin-4-yl)amino)hexahydrocyclopenta[c]pyrrol-2(1H)-yl)ethanone]",543
3,"CN(c1ncnc2[nH]ccc12)[C@@H]1C[C@@H]2CN(C(=O)Nc3nncs3)C[C@@H]2C1 [Example 73, (3aR,5R,6aS)-5-(methyl(7H-pyrrolo[2,3-d]pyrimidin-4-yl)amino)-N-(1,3,4-thiadiazol-2-yl)hexahydrocyclopenta[c] pyrrole-2(1H)-carboxamide]",518
4,"CN(c1ncnc2[nH]ccc12)[C@@H]1C[C@@H]2CCN(C(=O)Nc3nncs3)C[C@@H]2C1 [Example 150, (4aS,6R,7aR)-6-(methyl(7H-pyrrolo[2,3-d]pyrimidin-4-yl)amino)-N-(1,3,4-thiadiazol-2-yl)hexahydro-1H-cyclopenta[c]pyridine-2(3H)-carboxamide]",221
5,"CN(c1ncnc2[nH]ccc12)[C@H]1C[C@@H]2CN(C(=O)C3CC3)C[C@@H]2C1 [Example 13, Cyclopropyl((3aR,5S,6aS)-5-(methyl(7H-pyrrolo[2,3-d]pyrimidin-4-yl)amino)hexahydrocyclopenta[c]pyrrol-2(1H)-yl)methanone]",754
6,"CCC(=O)N1C[C@H]2C[C@H](N(C)c3ncnc4[nH]ccc34)C[C@H]2C1 [Example 84, 1-((3aR,5S,6aS)-5-(methyl(7H-pyrrolo[2,3-d]pyrimidin-4-yl)amino)hexahydrocyclopenta[c]pyrrol-2(1H)-yl)propan-1-one]",509
7,"CCc1nsc(NC(=O)N2C[C@H]3C[C@H](N(C)c4ncnc5[nH]ccc45)C[C@H]3C2)n1 [Example 121, (3aR,5S,6aS)-N-(3-ethyl-1,2,4-thiadiazol-5-yl)-5-(methyl(7H-pyrrolo[2,3-d]pyrimidin-4-yl)amino)hexahydrocyclopenta[c] pyrrole-2(1H)-carboxamide]",24
8,"CN(c1ncnc2[nH]ccc12)[C@H]1C[C@@H]2CN(C(=O)CCC#N)C[C@@H]2C1 [Example 22, 4-((3aR,5S,6aS)-5-(Methyl(7H-pyrrolo[2,3-d]pyrimidin-4-yl)amino)hexahydrocyclopenta[c]pyrrol-2(1H)-yl)-4-oxobutanenitrile]",281

# Same assay, conditions: IL-2 10 ng/mL, 72 hours; read-out: IC50(T cell)
row,Structure (SMILES),IC50 [nM]
1,"CN(c1ncnc2[nH]ccc12)[C@@H]1C[C@H]2CN(C(=O)CO)C[C@@]2(C)C1 (racemic) [Example 14, 2-Hydroxy-1-((3aS,5R,6aR/3aS,5R,6aR)-3a-methyl-5-(methyl(7H-pyrrolo[2,3-d]pyrimidin-4-yl)amino)hexahydrocyclopenta[c]pyrrol-2(1H)-yl)ethanone]",712
